Where a SMILES comes first, the peptide text is derived from it. Bridges are numbered along the chain shown (N, C = ends). [ ]: non-standard residue; d: D form. The star is where a group is joined. ξ: configuration not given here. Benzoyl(4-SiFtBu2) = CC(C)(C)[Si](F)(c1ccc(C(=O)*)cc1)C(C)(C)C; X1 = CC(C)(C)[Si](F)(c1ccc(C[N+](C)(C)CC(=O)*)cc1)C(C)(C)C; DO3AM = NC(=O)CN1CCN(CC(N)=O)CCN(CC(=O)*)CCN(CC(N)=O)CC1; ξW = NC(Cc1c[nH]c2ccccc12)C(=O)O; dDap = NC[C@@H](N)C(=O)O; ξF = NC(Cc1ccccc1)C(=O)O; ξD = NC(CC(=O)O)C(=O)O; ξDap = NCC(N)C(=O)O; ξC = NC(CS)C(=O)O

The text below walks through data of US20240317780A1, “RADIOPHARMACEUTICAL SOMATOSTATIN RECEPTOR LIGANDS AND PRECURSORS THEREOF” (Technische Universität München, priority 2021, published 2024).

Series [1] is described as follows: Octanol-water distribution coefficient (logD pH 7.4) of the labeled tracer. Type of series: physicochemical. Conditions: n-octanol/PBS pH 7.4, room temperature. As to the method: Approximately 1 MBq of the labeled tracer was dissolved in 1 mL of a 1:1 mixture (by volumes) of phosphate buffered saline (PBS, pH 7.4) and n-octanol in an Eppendorf tube. After vigorous mixing of the suspension for 3 minutes at room temperature, the vial was centrifuged at 15000 g for 5 minutes (Biofuge 15, Heraus Sepatech, Osterode, Germany) and 100 μL aliquots of both layers were measured in a gamma counter. The experiment was repeated at least six times.

Another series deals with HSA (Homo sapiens, UniProt P02768). The experiment in a line: HSA binding by RIAC method (gel filtration, apparent molecular weight). In kind it is in vitro ADME. To be noted: HSA binding as apparent molecular weight, 700 μM HSA in PBS mobile phase. As to the method: A gel filtration column Superdex 75 Increase 10/300 GL (GE Healthcare, Uppsala, Sweden) was beforehand calibrated following the producer's recommendations with a commercially available gel filtration calibration kit (GE Healthcare, Buckinghamshire, UK) comprising conalbumin (MW: 75 kDa), ovalbumin (44 kDa), carbonic anhydrase (29 kDa), ribonuclease A (13.7 kDa) and aprotinin (6.5 kDa) as reference proteins of known molecular weight. AMSEC experiments were conducted using a constant flow rate of 0.8 mL/min at rt. A solution of HSA in PBS at physiological concentration (700 μM) was used as the mobile phase. SST2 ligands were labelled as described with molar activities of 10-20 GBq/μmol. Probes of 1.0 MBq of the radioligand were injected directly from the labelling solution. HSA binding was expressed as an apparent molecular weight MW calculated from the retention time of the radioligand using the determined calibration curve.
For evaluation, experimentally determined retention times tR are first converted into elution volumes Ve by multiplying with the flow rate and thereafter converted into partition coefficients Kav following the equation
where V0 is the column void volume (8.027 mL) and Vc is the geometric column volume (24 mL). Using the equation given by the trend line plot of the column calibration
the apparent molecular weight MW is calculated as […]
(In general: Size exclusion chromatography separates by hydrodynamic size, large species first.)

The next series addresses T1, SST2 (Homo sapiens, UniProt P30874).
T1 construct: expressed in transfected cells; host or cells: CHO (Chinese hamster ovary) cells
The series can be described thus: Determination of IC50: competitive binding against [125I]TOC on SST2-transfected CHO cells. Conditions: [125I]TOC reference radioligand, 60 min room temperature.

T1 sequence (P30874 whole entry, species assumed): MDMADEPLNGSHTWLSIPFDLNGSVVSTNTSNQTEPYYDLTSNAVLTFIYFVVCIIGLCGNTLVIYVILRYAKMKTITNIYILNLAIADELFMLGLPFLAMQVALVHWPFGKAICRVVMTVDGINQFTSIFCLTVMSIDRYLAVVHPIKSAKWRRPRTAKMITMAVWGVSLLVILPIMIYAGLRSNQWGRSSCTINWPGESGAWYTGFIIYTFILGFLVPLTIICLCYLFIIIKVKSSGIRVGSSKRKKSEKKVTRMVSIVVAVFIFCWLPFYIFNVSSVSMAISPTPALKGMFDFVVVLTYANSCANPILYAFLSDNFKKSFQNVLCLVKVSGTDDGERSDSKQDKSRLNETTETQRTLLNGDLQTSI
HSA, sequence (P02768 25-609): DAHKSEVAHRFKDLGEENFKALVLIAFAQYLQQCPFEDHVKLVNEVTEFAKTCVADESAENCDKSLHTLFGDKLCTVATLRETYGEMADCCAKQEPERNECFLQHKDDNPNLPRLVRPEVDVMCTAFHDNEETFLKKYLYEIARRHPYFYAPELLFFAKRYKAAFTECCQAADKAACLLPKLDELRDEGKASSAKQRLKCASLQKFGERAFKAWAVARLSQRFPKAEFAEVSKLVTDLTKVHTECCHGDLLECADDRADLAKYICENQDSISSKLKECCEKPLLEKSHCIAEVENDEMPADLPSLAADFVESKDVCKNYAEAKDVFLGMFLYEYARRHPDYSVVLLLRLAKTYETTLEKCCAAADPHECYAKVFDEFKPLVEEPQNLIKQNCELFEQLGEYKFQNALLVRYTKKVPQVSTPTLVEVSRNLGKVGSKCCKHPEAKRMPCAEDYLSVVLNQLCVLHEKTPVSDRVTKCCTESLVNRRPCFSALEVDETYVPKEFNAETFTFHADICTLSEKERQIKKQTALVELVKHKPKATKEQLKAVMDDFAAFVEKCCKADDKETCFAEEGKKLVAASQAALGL

In the case of `C[C@@H](O)[C@H](NC(=O)C1CSSCC(NC(=O)C(Cc2ccccc2)NC(=O)COCCOCCNC(=O)C(CC(=O)O)NC(=O)[C@@H](CC(=O)O)NC(=O)C(CNC(=O)CN2CCN(CC(=O)O)CCN(CC(=O)O)CCN(CC(=O)O)CC2)NC(=O)[C@@H](CN)NC(=O)c2ccc([Si](F)(C(C)(C)C)C(C)(C)C)cc2)C(=O)N[C@@H](Cc2ccc(O)cc2)C(=O)NC(Cc2c[nH]c3ccccc23)C(=O)N[C@@H](CCCCN)C(=O)N[C@@H]([C@@H](C)O)C(=O)N1)C(=O)O` (stereo partly shown) (natGa complex, metal not drawn) [[Ga]23], in series [1], the “LogDpH=7.4” value is listed as −1.86 ± 0.06. Further, on HSA, the HSA is 18.59 kDa.

What is called IC50 is the concentration that inhibits the measured activity by half. Turning to `C[C@@H](O)[C@H](NC(=O)C1CSSCC(NC(=O)C(Cc2ccccc2)NC(=O)CNC(=O)CNC(=O)CNC(=O)C(CC(=O)O)NC(=O)[C@@H](CC(=O)O)NC(=O)C(CCCNC(N)=O)NC(=O)[C@@H](CNC(=O)CN2CCN(CC(=O)O)CCN(CC(=O)O)CCN(CC(=O)O)CC2)NC(=O)C[N+](C)(C)Cc2ccc([Si](F)(C(C)(C)C)C(C)(C)C)cc2)C(=O)N[C@@H](Cc2ccc(O)cc2)C(=O)NC(Cc2c[nH]c3ccccc23)C(=O)N[C@@H](CCCCN)C(=O)N[C@@H]([C@@H](C)O)C(=O)N1)C(=O)O` (stereo partly shown) (natGa complex, metal not drawn) [[Ga]58], the IC50 at SST2 came out at 4.41 ± 0.81 nM. The “LogDpH=7.4” value in series [1] is −2.31 ± 0.04.

On SST2, `C[C@@H](O)[C@@H]1NC(=O)[C@H](CCCCN)NC(=O)C(Cc2ccc(NC(N)=O)cc2)NC(=O)[C@H](Cc2ccc(NC(=O)C3CC(=O)NC(=O)N3)cc2)NC(=O)[C@H](NC(=O)[C@H](Cc2ccc(Cl)cc2)NC(=O)CNC(=O)CNC(=O)CNC(=O)C(CC(=O)O)NC(=O)[C@@H](CC(N)=O)NC(=O)C(CNC(=O)CN2CCN(CC(=O)O)CCN(CC(=O)O)CCN(CC(=O)O)CC2)NC(=O)C[N+](C)(C)Cc2ccc([Si](F)(C(C)(C)C)C(C)(C)C)cc2)CSSCC(C(=O)NC(Cc2ccc(O)cc2)C(N)=O)NC1=O` (stereo partly shown) (natGa complex, metal not drawn) [[Ga]59] had an IC50 of 23.7 ± 1.5 nM. Further, the “LogDpH=7.4” value in series [1] is listed as −2.14 ± 0.03.

Consider `C[C@@H](O)[C@H](NC(=O)C1CSSCC(NC(=O)C(Cc2ccccc2)NC(=O)CNC(=O)CNC(=O)CNC(=O)C(CC(=O)O)NC(=O)[C@@H](CC(=O)O)NC(=O)C(CNC(=O)CN2CCN(CC(=O)O)CCN(CC(=O)O)CCN(CC(=O)O)CC2)NC(=O)CNC(=O)C[N+](C)(C)Cc2ccc([Si](F)(C(C)(C)C)C(C)(C)C)cc2)C(=O)N[C@@H](Cc2ccc(O)cc2)C(=O)NC(Cc2c[nH]c3ccccc23)C(=O)N[C@@H](CCCCN)C(=O)N[C@@H]([C@@H](C)O)C(=O)N1)C(=O)O` (stereo partly shown) (natGa complex, metal not drawn) [[Ga]60], for which the IC50 at SST2 was 4.15 ± 0.79 nM. The “LogDpH=7.4” value in series [1] was −2.24 ± 0.05.

In the case of `C[C@@H](O)[C@H](NC(=O)C1CSSCC(NC(=O)C(Cc2ccccc2)NC(=O)CNC(=O)CNC(=O)[C@@H](CC(=O)O)NC(=O)C(CC(=O)O)NC(=O)[C@@H](CNC(=O)CN2CCN(CC(N)=O)CCN(CC(N)=O)CCN(CC(N)=O)CC2)NC(=O)C(CN)NC(=O)c2ccc([Si](F)(C(C)(C)C)C(C)(C)C)cc2)C(=O)N[C@@H](Cc2ccc(O)cc2)C(=O)NC(Cc2c[nH]c3ccccc23)C(=O)N[C@@H](CCCCN)C(=O)N[C@@H]([C@@H](C)O)C(=O)N1)C(=O)O` (stereo partly shown) [Ligand 36] ({Benzoyl(4-SiFtBu2)}-[ξDap][dDap](DO3AM)[ξD][dD]GG[ξF][ξC]Y[ξW]KT[ξC]T-OH; disulfide 8-13), the IC50 at SST2 stood at 7.05 ± 1.61 nM. Also, the “LogDpH=7.4” value in series [1] (listed as 36) is listed as −1.41 ± 0.07.

Consider `C[C@@H](O)[C@H](NC(=O)C1CSSCC(NC(=O)C(Cc2ccccc2)NC(=O)CNC(=O)CNC(=O)[C@@H](CC(=O)O)NC(=O)C(CC(=O)O)NC(=O)[C@@H](CNC(=O)CN2CCN(CC(=O)O)CCN(CC(=O)O)CCN(CC(=O)O)CC2)NC(=O)C(CN)NC(=O)c2ccc([Si](F)(C(C)(C)C)C(C)(C)C)cc2)C(=O)N[C@@H](Cc2ccc(O)cc2)C(=O)NC(Cc2c[nH]c3ccccc23)C(=O)N[C@@H](CCCCN)C(=O)N[C@@H]([C@@H](C)O)C(=O)N1)C(=O)O` (stereo partly shown) [[Ga]19], for which the “LogDpH=7.4” value in series [1] is listed as −2.11 ± 0.04. Besides, on HSA, the HSA is 21.17 kDa.

Regarding `C[C@@H](O)[C@H](NC(=O)C1CSSCC(NC(=O)C(Cc2ccccc2)NC(=O)CNC(=O)CNC(=O)[C@@H](CC(=O)O)NC(=O)C(CC(=O)O)NC(=O)[C@@H](CNC(=O)CC[C@H](C(=O)O)N2CCN(CC(=O)O)CCN(CC(=O)O)CCN(CC(=O)O)CC2)NC(=O)C(CN)NC(=O)c2ccc([Si](F)(C(C)(C)C)C(C)(C)C)cc2)C(=O)N[C@@H](Cc2ccc(O)cc2)C(=O)NC(Cc2c[nH]c3ccccc23)C(=O)N[C@@H](CCCCN)C(=O)N[C@@H]([C@@H](C)O)C(=O)N1)C(=O)O` (stereo partly shown) [[Ga]20], the “LogDpH=7.4” value in series [1] is on record as −2.16 ± 0.04. For the same molecule, the HSA at HSA worked out at 21.49 kDa.

For `C[C@@H](O)[C@H](NC(=O)C1CSSCC(NC(=O)C(Cc2ccccc2)NC(=O)CNC(=O)CNC(=O)[C@@H](CC(=O)O)NC(=O)C(CC(=O)O)NC(=O)[C@@H](CNC(=O)CN2CCN(CC(=O)O)CCN(CC(=O)O)CCN(CC(=O)O)CC2)NC(=O)C[N+](C)(C)Cc2ccc([Si](F)(C(C)(C)C)C(C)(C)C)cc2)C(=O)N[C@@H](Cc2ccc(O)cc2)C(=O)NC(Cc2c[nH]c3ccccc23)C(=O)N[C@@H](CCCCN)C(=O)N[C@@H]([C@@H](C)O)C(=O)N1)C(=O)O` (stereo partly shown) [[Ga]24], the “LogDpH=7.4” value in series [1] is −1.92 ± 0.03. For the same molecule, the HSA at HSA stood at 8.77 kDa.

As for `C[C@@H](O)[C@H](NC(=O)C1CSSCC(NC(=O)C(Cc2ccccc2)NC(=O)CNC(=O)CNC(=O)CNC(=O)C(CC(=O)O)NC(=O)[C@@H](CC(=O)O)NC(=O)C(CNC(=O)C[N+](C)(C)Cc2ccc([Si](F)(C(C)(C)C)C(C)(C)C)cc2)NC(=O)CN2CCN(CC(=O)O)CCN(CC(=O)O)CCN(CC(=O)O)CC2)C(=O)N[C@@H](Cc2ccc(O)cc2)C(=O)NC(Cc2c[nH]c3ccccc23)C(=O)N[C@@H](CCCCN)C(=O)N[C@@H]([C@@H](C)O)C(=O)N1)C(=O)O` (stereo partly shown) [[Ga]44], the “LogDpH=7.4” value in series [1] was −2.06 ± 0.08. The HSA at HSA came out at 6.99 kDa.

With `C[C@@H](O)[C@H](NC(=O)C1CSSCC(NC(=O)C(Cc2ccccc2)NC(=O)CNC(=O)CNC(=O)CNC(=O)C(CC(=O)O)NC(=O)[C@@H](CC(=O)O)NC(=O)C(CCCCN)NC(=O)[C@@H](CNC(=O)C[N+](C)(C)Cc2ccc([Si](F)(C(C)(C)C)C(C)(C)C)cc2)NC(=O)CN2CCN(CC(=O)O)CCN(CC(=O)O)CCN(CC(=O)O)CC2)C(=O)N[C@@H](Cc2ccc(O)cc2)C(=O)NC(Cc2c[nH]c3ccccc23)C(=O)N[C@@H](CCCCN)C(=O)N[C@@H]([C@@H](C)O)C(=O)N1)C(=O)O` (stereo partly shown) [[Ga]45], the “LogDpH=7.4” value in series [1] is −2.10 ± 0.04. Further, the HSA on HSA is given as 7.76 kDa.

On SST2, `C[C@@H](O)[C@H](NC(=O)C1CSSCC(NC(=O)C(Cc2ccccc2)NC(=O)CNC(=O)CNC(=O)CNC(=O)C(CC(=O)O)NC(=O)[C@@H](CC(=O)O)NC(=O)C(CNC(=O)CN2CCN(CC(N)=O)CCN(CC(N)=O)CCN(CC(N)=O)CC2)NC(=O)C[N+](C)(C)Cc2ccc([Si](F)(C(C)(C)C)C(C)(C)C)cc2)C(=O)N[C@@H](Cc2ccc(O)cc2)C(=O)NC(Cc2c[nH]c3ccccc23)C(=O)N[C@@H](CCCCN)C(=O)N[C@@H]([C@@H](C)O)C(=O)N1)C(=O)O` (stereo partly shown) [[Pb]54] (X1-[ξDap](DO3AM)[dD][ξD]GGG[ξF][ξC]Y[ξW]KT[ξC]T-OH; disulfide 8-13) gave an IC50 of 4.24 ± 0.68 nM. Besides, the “LogDpH=7.4” value in series [1] is recorded as −1.86 ± 0.04.
